Laboratory results taken from patent publication US20140120060A1, “TREATMENT OF RHEUMATOID ARTHRITIS AND ASTHMA USING PI3 KINASE INHIBITORS” (INFINITY PHARMACEUTICALS, INC., priority 2012, published 2014).
Entries after “also recorded” stand apart in the source; their conditions may differ. Like-named read-outs stand apart in the source and are kept apart here.

Key:
neutrophil migration = assay: Neutrophil migration into rat air pouches stimulated with IL-8; type: in vivo
Text: In one embodiment, provided herein is a method for screening for anti-inflammatory or anti-asthma compound in an animal (e.g., rat) pouch assay. In one embodiment, provided herein is a method for screening for anti-inflammatory or anti-asthma compound comprising (a) creating a pouch at the back of an animal (e.g., rat) and introducing a stimuli into the pouch; (b) administrating a compound to the animal; (c) measuring the influx of leukocyte (e.g., neutrophil and/or eosinophil) into the pouch; and (d) comparing the influx of leukocyte to that of a control vehicle; wherein a reduction in the influx of leukocyte indicates the compound is an anti-inflammatory or anti-asthma compound.
The ability of PI3K-δ,γ inhibitors to block leukocyte (e.g., neutrophil) migration was examined in a rat air pouch model. Air pouches were created by subcutaneous air injections into the back of the rats on Days 0 and 3. […] Animals dosed with vehicle only, with or without IL-8 stimulation, served as study controls.

[1] = Plasma protein binding, human plasma; type: in vitro ADME
Text: (§1) […]. […] […].

[2] = Pharmacokinetics in cynomolgus monkeys; type: in vivo, monkey
[3] = Embryo/fetal developmental toxicity study in rats; details: female, rat, in vivo; pregnant rats, last day of dosing, 35 mg/kg/day; read-out: mean AUC0-24 hr at the NOAEL
PI3K-β = biological target: T1, PI3K-β (Homo sapiens, UniProt P42338); assay: PI3K-β specific assay in platelets (thrombin peptide, activated GPIIb/IIIa); type: cell-based
T1 construct: from tissue; host or cells: platelets in whole blood

[4] = 13-week repeat-dose safety study in cynomolgus monkeys; details: both sexes, cynomolgus monkey, in vivo, oral, Day 91, combined sexes, 5 mg/kg/day, read-out: mean AUC0-24 hr at the NOAEL
Protocol: The no observed adverse effect level (NOAEL) in the 13-week rat study was 25 mg/kg/day (150 mg/m^2/day) and the NOAEL in the 13-week monkey study was 5 mg/kg/day (60 mg/m^2/day). On Day 91, the mean AUC0-24 hr values for combined sexes at the NOAELs were 14150 ng*h/mL in the rat, and 4015 ng*h/mL in the monkey.

[5] = system: ovalbumin-induced pulmonary inflammation; assay: Rat ovalbumin allergic asthma model
Human B-cell = Human B-cell proliferation; type: cell-based
[6] = Pharmacokinetics in Sprague-Dawley rats; type: in vivo, rat
[7] = Embryo/fetal developmental toxicity study in rabbits; details: female, rabbit, in vivo; pregnant rabbits, last day of dosing, 75 mg/kg/day; read-out: mean AUC0-24 hr at the NOAEL
[8] = Clinical study in healthy adult subjects: pharmacokinetics; type: in vivo, human; details: for half-life / AUC(0-t) / AUC(0-inf) / Cmax / Vd/F: human, plasma; for Vd/F: read-out: Vz/F
TL2/TLR6 = assay: PAM2CSK4 induced cytokine production in PBMCs; type: cell-based, human
Protocol: These experiments were conducted using PBMCs.
PAM2CSK4 signals through TL2/TLR6, which plays a role in atherosclerosis, colitis, ischemic injury, e.g., cardiac events and stroke.

[9] = system: developing adjuvant arthritis; assay: Freund's complete adjuvant induced rat model of arthritis; type: in vivo
Text: Freund's complete adjuvant induced arthritis in the rat is an experimental model of polyarthritis that has been widely used for nonclinical testing of numerous anti-arthritic agents that are either under nonclinical or clinical investigation, or are currently used as therapeutics in this disease.

[10] = Plasma protein binding, rat plasma; type: in vitro ADME; details: 100 μM (41700 ng/mL)
Text: as §1

B cell = B cell proliferation; type: cell-based
[11] = monkey, in vivo, cynomolgus monkeys, IV 1 mg/kg
[12] = monkey, in vivo, cynomolgus monkeys, PO 5 mg/kg suspension
[13] = DDI portion, 10 mg with 200 mg q12h ketoconazole
[14] = single oral dose 1 mg, mean (%CV)
[15] = single oral dose 2 mg, mean (%CV)
[16] = single oral dose 5 mg, mean (%CV)
[17] = single oral dose 10 mg, mean (%CV)
[18] = single oral dose 20 mg, mean (%CV)
[19] = single oral dose 30 mg, mean (%CV)

T1 sequence (P42338 whole entry): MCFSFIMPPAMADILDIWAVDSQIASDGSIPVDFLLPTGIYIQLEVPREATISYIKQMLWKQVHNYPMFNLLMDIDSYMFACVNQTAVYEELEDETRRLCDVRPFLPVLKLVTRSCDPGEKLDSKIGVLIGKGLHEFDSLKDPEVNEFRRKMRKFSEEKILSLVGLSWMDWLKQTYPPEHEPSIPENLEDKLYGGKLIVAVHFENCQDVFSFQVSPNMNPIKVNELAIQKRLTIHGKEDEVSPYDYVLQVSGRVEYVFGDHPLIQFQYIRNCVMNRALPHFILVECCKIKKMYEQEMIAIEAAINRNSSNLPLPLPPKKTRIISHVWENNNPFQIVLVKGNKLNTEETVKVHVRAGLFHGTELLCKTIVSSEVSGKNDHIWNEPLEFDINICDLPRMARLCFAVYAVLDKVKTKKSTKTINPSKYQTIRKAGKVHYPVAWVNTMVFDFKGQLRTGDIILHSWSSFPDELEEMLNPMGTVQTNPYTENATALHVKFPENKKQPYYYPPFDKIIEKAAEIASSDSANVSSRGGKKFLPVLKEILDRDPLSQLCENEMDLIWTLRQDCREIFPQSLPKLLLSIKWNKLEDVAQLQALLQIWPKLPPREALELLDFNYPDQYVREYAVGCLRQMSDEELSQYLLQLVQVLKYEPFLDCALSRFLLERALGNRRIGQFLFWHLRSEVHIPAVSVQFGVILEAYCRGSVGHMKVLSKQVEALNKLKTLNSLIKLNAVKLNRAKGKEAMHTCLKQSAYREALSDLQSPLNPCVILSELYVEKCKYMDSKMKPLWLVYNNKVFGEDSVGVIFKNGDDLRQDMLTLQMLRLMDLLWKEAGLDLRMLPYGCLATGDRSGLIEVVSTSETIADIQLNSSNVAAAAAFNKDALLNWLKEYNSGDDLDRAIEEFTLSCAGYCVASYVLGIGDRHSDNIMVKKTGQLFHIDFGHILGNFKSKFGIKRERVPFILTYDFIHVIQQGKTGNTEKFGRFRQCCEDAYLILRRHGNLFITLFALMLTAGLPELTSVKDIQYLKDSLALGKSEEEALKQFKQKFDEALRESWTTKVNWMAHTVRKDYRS
T1 sequence (P27986 whole entry partner): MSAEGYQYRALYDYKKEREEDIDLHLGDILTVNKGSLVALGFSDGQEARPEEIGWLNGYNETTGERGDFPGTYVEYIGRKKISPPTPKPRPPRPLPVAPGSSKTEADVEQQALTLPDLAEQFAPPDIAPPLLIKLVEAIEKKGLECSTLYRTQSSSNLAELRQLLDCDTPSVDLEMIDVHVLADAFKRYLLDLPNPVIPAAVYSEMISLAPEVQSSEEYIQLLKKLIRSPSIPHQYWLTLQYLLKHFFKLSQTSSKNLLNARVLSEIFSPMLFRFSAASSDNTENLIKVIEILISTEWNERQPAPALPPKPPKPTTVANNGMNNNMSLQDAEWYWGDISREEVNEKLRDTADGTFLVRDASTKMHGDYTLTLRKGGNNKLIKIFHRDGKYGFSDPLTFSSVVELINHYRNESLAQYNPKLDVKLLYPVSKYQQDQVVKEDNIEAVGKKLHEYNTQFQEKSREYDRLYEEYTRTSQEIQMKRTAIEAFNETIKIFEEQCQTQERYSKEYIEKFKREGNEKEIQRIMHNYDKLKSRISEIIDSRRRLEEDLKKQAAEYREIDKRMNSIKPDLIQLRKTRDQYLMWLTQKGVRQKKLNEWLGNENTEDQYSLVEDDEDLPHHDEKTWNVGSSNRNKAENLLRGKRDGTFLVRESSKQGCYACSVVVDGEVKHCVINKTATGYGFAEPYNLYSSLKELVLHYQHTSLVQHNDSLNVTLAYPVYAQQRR

In the case of `C[C@H](Nc1ncnc2[nH]cnc12)c1cc2cccc(Cl)c2c(=O)n1-c1ccccc1` [Compound 292], the “neutrophil influx into IL-8 stimulated air pouches” value (neutrophil migration; 1 mg/kg PO) is reported as “only slightly”, the “neutrophil influx into IL-8 stimulated air pouches” value (neutrophil migration; 10 and 25 mg/kg PO) is reported as “inhibits; also recorded: significantly blocked” and the “protein bound in human plasma” value [1] is reported as 95%. The “protein bound in human plasma” value ([1]; 100 μM (41700 ng/mL)) was 85.9%, the Foral ([2]; cynomolgus monkeys, PO 5 mg/kg suspension) was 40% and the AUC(0-inf) [2, 11] was 2380 ng·h/mL. It also gave an AUC(0-t) [2, 11] of 2360 ng·h/mL, a Tmax [2, 11] of 0.083 h and a clearance [2, 11] of 7.17 mL/min/kg. It also gave a half-life ([2]; monkey, in vivo, cynomolgus monkeys, IV 1 mg/kg, read-out: T1/2 (converted)) of 5 h, a Vd ([2]; monkey, in vivo, cynomolgus monkeys, IV 1 mg/kg, read-out: Vss) of 1.27 L/kg and an AUC(0-inf) [2, 12] of 4680 ng·h/mL. The AUC(0-t) [2, 12] was 4600 ng·h/mL, the Cmax [2, 12] was 1330 ng/mL and the Tmax [2, 12] was 1.5 h. The half-life ([2]; monkey, in vivo, cynomolgus monkeys, PO 5 mg/kg suspension, read-out: T1/2 (converted)) was 5.4 h, the half-life ([2]; monkey, in vivo, monkeys, read-out: half-life (converted)) was 5 h and the AUC(0-t) [3] was 62200 ng·h/mL. The “window between PI3K-γ and PI3K-β inhibition in whole blood” value (PI3K-β) was “about 4 fold”, the AUC(0-t) [4] was 4020 ng·h/mL and the “levels of TNF-α, KC/GRO, IL-13 and IL-5 in the BAL” value ([5]; 10 mg/kg PO) was “inhibited; also recorded: significantly suppressed”. For the same molecule, the “neutrophils and eosinophils in the BAL” value ([5]; 1 and 10 mg/kg PO, 48 hours after re-challenge) was “significantly reduced”, the “leukocyte migration into the bronchoalveolar space” value ([5]; FIG. 16) was “inhibited” and the EC50 (Human B-cell) was 0.5 nM. It also gave a Foral ([6]; Sprague-Dawley rats, PO 10 mg/kg suspension) of 57%, a half-life ([6]; Sprague-Dawley, rat, in vivo, intravenous, 2 mg/kg) of under 2 h and an AUC(0-t) [7] of 66200 ng·h/mL. For the same molecule, the “excretion of unchanged compound in urine” value [8] was < 2 % of the administered dose, the “time to peak plasma concentrations” value [8] was 0.5 to 1 h and the accumulation ([8]; 14 days of Q12 h oral administration) was “less than 2 fold”. For the same molecule, the “increase of AUC0-inf in the presence of ketoconazole” value [8, 13] was about 295%, the “increase of AUC0-last in the presence of ketoconazole” value [8, 13] was about 285% and the “increase of Cmax in the presence of ketoconazole” value [8, 13] was “approximately 66%”. For the same molecule, the “decrease of Cmax in the presence of a high fat meal” value ([8]; food effect portion, 25 mg) was “approximately 10%”, the half-life ([8]; oral, following a single dose, read-out: half-life) was 3.5 to 9.5 h and the AUC(0-t) ([8]; po, 1 mg, single oral dose 1 mg, mean (%CV), read-out: AUC(0-24)) was 149 ng·h/mL. It also gave an AUC(0-t) ([8]; po, 1 mg, single oral dose 1 mg, mean (%CV), read-out: AUC(0-t)) of 148 ng·h/mL, a half-life ([8]; po, 1 mg, single oral dose 1 mg, mean (%CV), read-out: T1/2 (converted)) of 3.52 h and an AUC(0-t) ([8]; po, 2 mg, single oral dose 2 mg, mean (%CV), read-out: AUC(0-24)) of 289 ng·h/mL. The AUC(0-t) ([8]; po, 2 mg, single oral dose 2 mg, mean (%CV), read-out: AUC(0-t)) was 291 ng·h/mL, the half-life ([8]; po, 2 mg, single oral dose 2 mg, mean (%CV), read-out: T1/2 (converted)) was 5.43 h and the AUC(0-t) ([8]; po, 5 mg, single oral dose 5 mg, mean (%CV), read-out: AUC(0-24)) was 733 ng·h/mL. For the same molecule, the AUC(0-t) ([8]; po, 5 mg, single oral dose 5 mg, mean (%CV), read-out: AUC(0-t)) was 735 ng·h/mL, the half-life ([8]; po, 5 mg, single oral dose 5 mg, mean (%CV), read-out: T1/2 (converted)) was 5.43 h and the AUC(0-t) ([8]; po, 10 mg, single oral dose 10 mg, mean (%CV), read-out: AUC(0-24)) was 891 ng·h/mL. It also gave an AUC(0-t) ([8]; po, 10 mg, single oral dose 10 mg, mean (%CV), read-out: AUC(0-t)) of 905 ng·h/mL, a half-life ([8]; po, 10 mg, single oral dose 10 mg, mean (%CV), read-out: T1/2 (converted)) of 9.47 h and an AUC(0-t) ([8]; po, 20 mg, single oral dose 20 mg, mean (%CV), read-out: AUC(0-24)) of 2190 ng·h/mL. It also gave an AUC(0-t) ([8]; po, 20 mg, single oral dose 20 mg, mean (%CV), read-out: AUC(0-t)) of 2240 ng·h/mL, a half-life ([8]; po, 20 mg, single oral dose 20 mg, mean (%CV), read-out: T1/2 (converted)) of 7.79 h and an AUC(0-t) ([8]; po, 30 mg, single oral dose 30 mg, mean (%CV), read-out: AUC(0-24)) of 3260 ng·h/mL. For the same molecule, the AUC(0-t) ([8]; po, 30 mg, single oral dose 30 mg, mean (%CV), read-out: AUC(0-t)) was 3380 ng·h/mL, the half-life ([8]; po, 30 mg, single oral dose 30 mg, mean (%CV), read-out: T1/2 (converted)) was 8.12 h and the AUC(0-inf) [8, 14] was 151 ng·h/mL. It also gave a Cmax [8, 14] of 43.4 ng/mL, a Vd/F [8, 14] of 38.8 L and an AUC(0-inf) [8, 15] of 296 ng·h/mL. For the same molecule, the Cmax [8, 15] was 78.8 ng/mL, the Vd/F [8, 15] was 57.9 L and the AUC(0-inf) [8, 16] was 743 ng·h/mL. The Cmax [8, 16] was 246 ng/mL, the Vd/F [8, 16] was 53 L and the AUC(0-inf) [8, 17] was 914 ng·h/mL. The Cmax [8, 17] was 454 ng/mL, the Vd/F [8, 17] was 147 L and the AUC(0-inf) [8, 18] was 2250 ng·h/mL. The Cmax [8, 18] was 997 ng/mL, the Vd/F [8, 18] was 99.1 L and the AUC(0-inf) [8, 19] was 3400 ng·h/mL. For the same molecule, the Cmax [8, 19] was 1140 ng/mL, the Vd/F [8, 19] was 113 L and the “PAM2CSK4 induced IL-1 production” value (TL2/TLR6) was “Inhibited”. The “PAM2CSK4 induced IL-6 production” value (TL2/TLR6) was “Inhibited”, the “PAM2CSK4 induced IL-8 production” value (TL2/TLR6) was “Inhibited” and the “PAM2CSK4 induced TNF-α production” value (TL2/TLR6) was “Inhibited”. The “reduction of final paw weights” value ([9]; 5 mg/kg BID) was 30%, the “reduction of histopathologic bone resorption” value ([9]; 5 mg/kg BID) was 72% and the “reduction of histopathologic inflammation” value ([9]; 5 mg/kg BID) was 18%. The “inhibition of ankle diameter AUC (d7-14) increase” value (shortened to “inhibition … (d7-14) increase”) ([9]; 5 mg/kg BID PO days 5-14) was 24%, the “reduction of final paw weights” value ([9]; 10 mg/kg QD) was 23% and the “reduction of histopathologic bone resorption” value ([9]; 10 mg/kg QD) was 67%. For the same molecule, the “reduction of histopathologic inflammation” value ([9]; 10 mg/kg QD) was 15%, the “inhibition … (d7-14) increase” value ([9]; 10 mg/kg QD PO days 5-14) was 31% and the “reduction of final paw weights” value ([9]; 50 mg/kg QD) was 98%. The “reduction of histopathologic bone resorption” value ([9]; 50 mg/kg QD) was 100%, the “reduction of histopathologic inflammation” value ([9]; 50 mg/kg QD) was 88% and the “inhibition … (d7-14) increase” value ([9]; 50 mg/kg QD PO days 5-14) was 95%. The “protein bound in rat plasma” value [10] was 85.8% and the EC50 (B cell) was under 100 nM.
